The target of one test is T1, human GST-DYRK1A (Homo sapiens, UniProt Q13627).
T1 construct: purified human GST-DYRK1A (full length, Thermo Scientifics) enzyme; purchased Thermo Scientifics
Briefly: GST-DYRK1A enzyme inhibition, ADP-Glo kinase assay. The class given is biochemical. The following applies: ATP 10 μM, GST-DYRK1A full length, read-out: DYRK1 IC50. In outline: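 Full-length enzyme (10 ng) was incubated with 10 μM ATP and a specific substrate for 1 h at 25 °C in 40 mM Tris-HCl pH 7.4, 20 mM MgCl2, 0.5 mg/mL BSA, 50 μM DTT. Luminescence was read against a solvent control, and IC50 values were derived from 3 data sets.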

The next test concerns IL-6. Kind of test: Inhibition of LPS-induced IL-6 secretion of THP-1 monocytes (ELISA). The test is classed as cell-based, human. The conditions noted are these: Homo sapiens, THP-1; compound 0.5 μM, LPS 500 ng/mL, 24 hours; read-out: THP1/IL6 (% inhib). As for the experimental part:
(§1) To evaluate an inhibitory effect on cytokine secretion of monocytes, THP-1 cells (ATCC, #TIB-202) as a human-derived monocyte line were cultured in an RPMI-1640 (Hyclone, SH30027.01) medium supplemented with 10% fetal bovine serum (Hyclone, SH30084.03), 1% penicillin streptomycin (Welgene, LS202-02), and 50 μM 2-mercaptoethanol (Gibco, #21985023). In the test, the cells were seeded in a 48-well plate (SPL, #30048) at a density of 1.5 to 2×10^5 cells/250 μL per well, and cultured at 37° C. for 16 hours in a 5% CO2 incubator. Thereafter, the compound was diluted with DMSO so that the final concentration of the compound was 0.5 μM. Then, the cells were treated with the diluted compound before an hour of treatment with lipopolysaccharides (LPS) (Sigma, #L6529). After the treatment with the compound, the cells were treated with LPS so that the final concentration was 500 ng/mL. Then, a cell culture broth was collected after 24 hours of culture, and levels of cytokine IL-6 (R&D Systems, #D6050) and TNF-α (R&D Systems, #DTA00D) comprised in the culture broth were measured using respective ELISA kits. After an experiment was performed according to the manufacturer's guidelines, cell analysis was performed by measuring the optical density at 450 nm using a microplate reader.
Background: In an ELISA, binding on a coated surface is turned into a signal by an enzyme label.

The target in a further test is T2, human GST-CLK1 (Homo sapiens, UniProt P49759).
T2 construct: purified human GST-CLK1 (129-end, SignalChem) enzyme; purchased SignalChem
Briefly: GST-CLK1 enzyme inhibition, ADP-Glo kinase assay. The following applies: ATP 10 μM, GST-CLK1 129-end. The class given is biochemical. In short, it runs like this: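 ADP-Glo luminescence read-out, relative to untreated solvent control, gave IC50 (nM) from triplicate data sets. Reactions ran an hour at 25° C with 3 ng GST-CLK1 (residues 129-end), 10 μM ATP and specific substrate in Tris-HCl pH 7.4 buffer with MgCl2, BSA and DTT.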
(In ADP-Glo the light output rises with the ADP produced.)

The test system of another test is TNF-α. Kind of test: Inhibition of LPS-induced TNF-α secretion of THP-1 monocytes (ELISA). The following applies: Homo sapiens, THP-1; compound 0.5 μM, LPS 500 ng/mL, 24 hours; read-out: THP-1/TNF-α (% inhib). The class given is cell-based, human. The protocol:
as §1

In the next test the test system is human DYRK1A and tau. Briefly: Inhibition of tau phosphorylation, ClariCELL Kinase Cell-Based Assay, HEK 293 cells expressing human DYRK1A and tau. The following applies: for inhibition at 1 µM: HEK293, read-out: % inhibition at 1 uM, tau phosphorylation, compound 1 uM; for inhibition at 0.25 µM / inhibition at 0.5 µM: HEK293, tau phosphorylation; for inhibition at 0.25 µM: compound 0.25 uM; for inhibition at 0.5 µM: compound 0.5 uM. As for the experimental part:
An inhibitory effect on tau phosphorylation was determined using the ClariCELL™ Kinase Cell-Based Assay service (commercially available from CamaBio USA, Inc.). Human embryonic kidney (HEK 293) cells temporarily expressing human DYRK1A and tau were exposed to the compound, and then lysed to release cell proteins. In this case, the released tau was captured on a plate, and a degree of phosphorylation was quantified by ELISA using a tau phosphorylation-specific antibody.

Another test addresses LRRK2 (G2019S) (Homo sapiens, UniProt Q5S007, G2019S). Briefly: LRRK2 G2019S enzyme inhibition, ADP-Glo kinase assay. Also noted: purchased SignalChem L10-12GG. The following applies: ATP 25 μM. The test is classed as biochemical. In outline:
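IC50 derived from luminescent ADP-Glo readout against untreated solvent control, twelve final compound concentrations from 50 μM downward. Reaction: recombinant human LRRK2 G2019S enzyme, 25 μM ATP, substrate, pH 7.4 Tris buffer with MgCl2/BSA/DTT, 25° C. for 2 hours.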

For another test, the target named is LRRK2 (Homo sapiens, UniProt Q5S007). Kind of test: LRRK2 enzyme inhibition, ADP-Glo kinase assay. Also noted: purchased Invitrogen PR8604B. The test is classed as biochemical. The conditions noted are these: ATP 10 μM. In outline:
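ADP-Glo luminescent read-out of ADP formed by purified human LRRK2 enzyme (25 ng), 10 μM ATP, 0.2 μg substrate, 25° C for 2 h, Tris-HCl pH 7.4 buffer with MgCl2, BSA, DTT. Inhibition versus untreated solvent control over twelve final concentrations (50 μM downward) gives IC50.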

Structures are written as SMILES. Where only a bound is given, the exact number is not on record here.

T2 sequence (P49759 129-484 limits assumed): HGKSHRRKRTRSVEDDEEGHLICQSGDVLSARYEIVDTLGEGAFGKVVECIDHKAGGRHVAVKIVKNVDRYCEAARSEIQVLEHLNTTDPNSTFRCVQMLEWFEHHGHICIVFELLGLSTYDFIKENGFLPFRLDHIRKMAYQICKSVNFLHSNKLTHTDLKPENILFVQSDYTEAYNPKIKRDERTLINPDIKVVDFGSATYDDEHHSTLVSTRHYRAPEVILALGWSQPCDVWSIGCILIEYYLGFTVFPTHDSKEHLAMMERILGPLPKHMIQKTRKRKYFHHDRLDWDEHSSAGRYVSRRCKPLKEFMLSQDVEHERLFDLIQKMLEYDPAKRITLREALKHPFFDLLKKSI
Sequence of LRRK2 (G2019S) (Q5S007 970-2527 G2019S limits assumed): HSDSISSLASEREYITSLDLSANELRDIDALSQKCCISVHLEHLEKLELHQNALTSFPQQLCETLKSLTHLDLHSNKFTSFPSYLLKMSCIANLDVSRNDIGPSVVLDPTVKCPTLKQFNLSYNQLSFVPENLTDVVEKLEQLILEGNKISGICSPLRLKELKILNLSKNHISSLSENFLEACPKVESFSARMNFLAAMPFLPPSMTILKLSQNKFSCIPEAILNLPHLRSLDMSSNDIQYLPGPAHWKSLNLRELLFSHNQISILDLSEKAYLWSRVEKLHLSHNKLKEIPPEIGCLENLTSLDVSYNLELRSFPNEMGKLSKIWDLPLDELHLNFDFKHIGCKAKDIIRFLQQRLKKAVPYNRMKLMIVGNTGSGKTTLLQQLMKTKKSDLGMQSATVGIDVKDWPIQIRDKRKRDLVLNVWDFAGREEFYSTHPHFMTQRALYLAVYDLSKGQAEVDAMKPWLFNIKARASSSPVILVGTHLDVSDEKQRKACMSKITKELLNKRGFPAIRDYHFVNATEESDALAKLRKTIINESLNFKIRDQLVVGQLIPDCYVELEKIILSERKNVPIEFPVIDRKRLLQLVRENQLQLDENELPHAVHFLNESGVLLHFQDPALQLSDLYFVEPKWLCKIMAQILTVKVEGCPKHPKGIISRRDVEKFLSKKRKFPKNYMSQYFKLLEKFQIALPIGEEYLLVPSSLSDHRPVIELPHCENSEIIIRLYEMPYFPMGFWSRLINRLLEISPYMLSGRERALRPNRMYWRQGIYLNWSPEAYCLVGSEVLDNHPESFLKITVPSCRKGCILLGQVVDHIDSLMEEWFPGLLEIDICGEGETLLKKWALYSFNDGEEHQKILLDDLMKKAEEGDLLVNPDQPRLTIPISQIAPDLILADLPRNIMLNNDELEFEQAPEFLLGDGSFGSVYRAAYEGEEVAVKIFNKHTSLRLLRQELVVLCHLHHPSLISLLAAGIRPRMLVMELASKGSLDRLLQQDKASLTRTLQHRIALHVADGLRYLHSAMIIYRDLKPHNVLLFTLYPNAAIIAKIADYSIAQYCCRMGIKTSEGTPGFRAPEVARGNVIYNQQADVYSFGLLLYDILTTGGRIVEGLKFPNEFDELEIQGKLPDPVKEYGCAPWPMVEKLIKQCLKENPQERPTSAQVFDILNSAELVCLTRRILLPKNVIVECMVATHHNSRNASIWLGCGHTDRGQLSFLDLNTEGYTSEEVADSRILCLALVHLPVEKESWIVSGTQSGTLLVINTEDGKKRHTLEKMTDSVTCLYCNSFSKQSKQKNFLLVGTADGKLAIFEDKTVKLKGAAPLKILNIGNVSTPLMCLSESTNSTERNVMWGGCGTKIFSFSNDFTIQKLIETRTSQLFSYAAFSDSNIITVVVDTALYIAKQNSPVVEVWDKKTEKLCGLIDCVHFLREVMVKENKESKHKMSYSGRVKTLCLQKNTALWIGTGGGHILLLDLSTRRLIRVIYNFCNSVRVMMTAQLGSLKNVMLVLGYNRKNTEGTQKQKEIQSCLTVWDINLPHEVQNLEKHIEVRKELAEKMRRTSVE
Sequence of LRRK2 (Q5S007 970-2527 limits assumed): as the sequence (Q5S007 970-2527 G2019S limits assumed) above, with S1050G counted along it

For the compound `CC(C)Nc1nc(Nc2ccc(C(=O)N3CCC(N4CCOCC4)CC3)c3c2OCC3)nc2[nH]cc(C(F)(F)F)c12` [Example 450, (7-((4-(isopropylamino)-5-(trifluoromethyl)-7H-pyrrolo[2,3-d]pyrimidin-2-yl)amino)-2,3-dihydrobenzo-furan-4-yl)(4-morpho-linopiperidin-1-yl)methanone], the IC50 at human GST-DYRK1A and on human GST-CLK1 was < 0.1 µM in each case. The inhibition at 0.5 µM was 11.4% in the test with IL-6; 7.5% with TNF-α; 66.8% with human DYRK1A and tau. Further, in the test with human DYRK1A and tau, the inhibition at 1 µM is 84.9%. In the test with human DYRK1A and tau, the inhibition at 0.25 µM worked out at 37.2%.
For the compound `CCCNc1nc(Nc2ccc(C(=O)N3CCC(N4CCOCC4)CC3)c3c2OCC3)nc2[nH]cc(C#N)c12` [Example 349, 2-((4-(4-morpholino-piperidine-1-carbonyl)-2,3-dihydro-benzofuran-7-yl)amino)-4-(propylamino)-7H-pyrrolo[2,3-d]pyrimidine-5-carbonitrile], the IC50 at human GST-DYRK1A and against human GST-CLK1 was < 0.1 µM in each case. Moreover, the inhibition at 0.5 µM was determined as 32.9% with IL-6; 36.7% with TNF-α; 37% in the test with human DYRK1A and tau. The inhibition at 1 µM in the test on human DYRK1A and tau worked out at 53.4%. Moreover, the inhibition at 0.25 µM with human DYRK1A and tau amounted to 21%.
With `CNc1nc(Nc2ccc(C(=O)N3CCC(N4C[C@@H]5C[C@H]4CO5)CC3)c3c2OCC3)nc2[nH]cc(C(F)(F)F)c12` [Example 230, (4-((1S,4S)-2-oxa-5-azabicyclo[2.2.1]heptan-5-yl)piperidin-1-yl)(7-((4-(methylamino)-5-(tifluoromethyl)-7H-pyrrolo[2,3-d]pyrimidin-2-yl)amino)-2,3-dihydrobenzofuran-4-yl)methanone], the IC50 at human GST-DYRK1A, at human GST-CLK1, against LRRK2 (G2019S) and at LRRK2 was < 0.1 µM in each case. For the same compound, the inhibition at 0.5 µM is 34% in the test with IL-6 and 1% with TNF-α.
With `CCNc1nc(Nc2ccc(C(=O)N3CC[C@@H](N4CCOCC4)C3)c3c2OCC3)nc2[nH]cc(C(F)(F)F)c12` [Example 476, (R)-(7-((4-(ethylamino)-5-(trifluoromethyl)-7H-pyrrolo[2,3-d]pyrimidin-2-yl)amino)-2,3-dihydrobenzo-furan-4-yl)(3-morpholino-pyrrolidin-1-yl)methanone], the IC50 at human GST-DYRK1A, against human GST-CLK1, against LRRK2 (G2019S) and against LRRK2 was < 0.1 µM in each case. In addition, the results for the inhibition at 0.5 µM in the test on IL-6 and in the test on TNF-α were 47.4% and 24.5%, respectively.
Take `COCCNc1nc(Nc2ccc(C(=O)N3CCOCC3)c3c2OCC3)nc2[nH]cc(C(F)(F)F)c12` [Example 442, (7-((4-((2-methoxyethyl)amino)-5-(trifluoromethyl)-7H-pyrrolo[2,3-d]pyrimidin-2-yl)amino)-2,3-dihydrobenzo-furan-4-yl) (morpholino) methanone]: the IC50 on human GST-DYRK1A and at human GST-CLK1 was < 0.1 µM throughout. For the same compound, the inhibition at 0.5 µM with IL-6 was found to be 31.4%; in the test on TNF-α, 1.9%; in the test on human DYRK1A and tau, 51.5%. In addition, the inhibition at 1 µM in the test on human DYRK1A and tau was found to be 80.8%. The compound further returned an inhibition at 0.25 µM in the test with human DYRK1A and tau of 45%.
`CCNc1nc(Nc2ccc(C(=O)N3CCC(N4CCOCC4)CC3)c3c2OCO3)nc2[nH]cc(C(F)(F)F)c12` [Example 213, (7-((4-(ethylamino)-5-(trifluoromethyl)-7H-pyrrolo[2,3-d]pyrimidin-2-yl)amino)benzo[d][1,3]dioxol-4-yl)(4-morpholinopiperidin-1-yl)methanone]: the IC50 at human GST-DYRK1A, at human GST-CLK1, against LRRK2 (G2019S) and at LRRK2 was < 0.1 µM in each case. The inhibition at 0.5 µM in the test with IL-6 was determined as 32.4%; in the test on TNF-α, 11.5%.

The term IC50 denotes the midpoint of a concentration-inhibition curve.

The record behind these values is patent publication US20230066011A1, “PYRROLOPYRIMIDINE DERIVATIVE, AND PHARMACEUTICAL COMPOSITION FOR PREVENTING OR TREATING PROTEIN KINASE-RELATED DISEASE COMPRISING SAME AS ACTIVE INGREDIENT” (VORONOI CO., LTD., priority 2019, published 2023).
